Results published in US9302012B2, “Anti-bacterial siderophore-aminopenicillin conjugates” (University of Notre Dame Du Lac, priority 2012, dated 2016).

Test system: collection of strains of P. aeruginosa
Test: Agar well diffusion test (several strains)
Format: cell-based, Pseudomonas aeruginosa
Settings: control samples
Procedure: Conjugates 10 and 11 were first evaluated for their antibacterial ability against a collection of strains of P. aeruginosa using the agar well diffusion test. The influence of iron concentration on antibacterial activity was probed as well by conducting assays in iron-rich and iron-deficient media.
All liquids and media were sterilized by autoclaving (121° C., 15 min) before use. All aqueous solutions and media were prepared using distilled, deionized, and filtered water (Millipore Milli-Q Advantage A10 Water Purification System). Luria broth (LB) was purchased from VWR. Mueller-Hinton No. 2 broth (MHII broth; cation adjusted) was purchased from Sigma-Aldrich (St. Louis, Mo.). Iron-deficient (—Fe) MHII broth was prepared by adding 0.8 mL of a 1 mg/mL sterile aq. solution of 2,2′-bipyridine to 49.2 mL of MHII broth. Iron-rich (+Fe) MHII broth was prepared by adding 0.8 mL of a 1 mg/mL sterile aq. solution of FeCl3 to 49.2 mL of MHII broth. Mueller-Hinton No. 2 agar (MHII agar; HiMedia Laboratories) was purchased from VWR. Iron-deficient (−Fe) MHII agar was prepared by adding 0.5 mL of a 1 mg/mL sterile aq. solution of 2,2′-bipyridine to 34 mL of melted MHII agar with gentle mixing. Iron-rich (+Fe) MHII agar was prepared by adding 0.5 mL of a 1 mg/mL sterile aq. solution of FeCl3 to 34 mL of melted MHII agar with gentle mixing. See also Wencewicz, T. A. Dissertation, University of Notre Dame, Notre Dame, Ind., 2011, for relevant techniques.
Antibacterial Susceptibility Testing by the Agar Diffusion Assay.
Antibacterial activity of the compounds was determined by a modified Kirby-Bauer agar diffusion assay. Overnight cultures of test organisms were grown in LB broth for 18-24 h and standard suspensions of […] were prepared in saline solution (0.9% NaCl) according to a 0.5 BaSO4 McFarland Standard. This standardized suspension (0.1 mL) was added to 34 mL of sterile, melted agar (−Fe or +Fe) tempered to 47-50° C. After gentle mixing, the inoculated agar media was poured into a sterile plastic petri dish (145 mm×20 mm) and allowed to solidify near a flame with the lid ajar for about 30 min. Wells of 9.0 mm diameter were cut from the petri dish agar and filled with exactly 50 μL of the test sample solution. The petri dish was incubated at 37° C. for 18-24 h and the inhibition zone diameters were measured (mm) with an electronic caliper after 24 h.

CC(=O)Oc1cccc(C(=O)NCCCC(CCCNC(=O)c2cccc(OC(C)=O)c2OC(C)=O)(CCCNC(=O)c2cccc(OC(C)=O)c2OC(C)=O)NC(=O)CCC(=O)O)c1OC(C)=O [Compound 9]
inhibitory effect in the agar well diffusion test: did not show any inhibitory effect

CC(=O)Oc1cccc(C(=O)NCCCC(CCCNC(=O)c2cccc(OC(C)=O)c2OC(C)=O)(CCCNC(=O)c2cccc(OC(C)=O)c2OC(C)=O)NC(=O)CCC(=O)N[C@@H](C(N)=O)c2ccccc2)c1OC(C)=O [Compound S1]
inhibitory effect in the agar well diffusion test: did not show any inhibitory effect
